# In patent US9149038B2, “4-amino-6-(heterocyclic)picolinates and 6-amino-2-(heterocyclic)pyrimidine-4-carboxylates and their use as herbicides” (Dow AgroSciences LLC, priority 2013, dated 2015):
# Where two headings read alike, the source gives them in different places.
# System: Direct Seeded Rice and weed species
# Assay: Postemergence herbicidal activity in direct seeded rice, visual rating after 20-22 days and probit GR20/GR50/GR80/GR90 (Table 14)
# Type: in vivo
# Settings: for pest or weed control at 17.5 g/ha / pest or weed control at 35 g/ha / pest or weed control at 70 g/ha: post-emergence, 504 h, postemergence; for pest or weed control at 17.5 g/ha: 17.5 g ai/ha; for pest or weed control at 35 g/ha: 35 g ai/ha; for pest or weed control at 70 g/ha: 70 g ai/ha
# Method in brief: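 Rice and weeds grown in loam–sand soil (pH about 8.1) in greenhouse to 2nd–3rd true leaf, then sprayed postemergence at 187 L/ha in acetone/DMSO with 1.25% (v/v) Agri-dex crop oil. Injury rated visually 0–100 after 20-22 days versus untreated plants; GR20, GR50, GR80, GR90 obtained by probit analysis across dose rates.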
# [1] = BRAPP (broadleaf signalgrass, Brachiaria platyphylla), read-out: Visual Growth Reduction (%) 21 Days After Application BRAPP
# [2] = CYPDI (small-flower flatsedge, Cyperus difformis), read-out: Visual Growth Reduction (%) 21 Days After Application CYPDI
# [3] = CYPES (yellow nutsedge, Cyperus esculentus), read-out: Visual Growth Reduction (%) 21 Days After Application CYPES
# [4] = CYPIR (rice flatsedge, Cyperus iria), read-out: Visual Growth Reduction (%) 21 Days After Application CYPIR
# [5] = DIGSA (large crabgrass, Digitaria sanguinalis), read-out: Visual Growth Reduction (%) 21 Days After Application DIGSA
# [6] = ECHCG (barnyardgrass, Echinochloa crus-galli), read-out: Visual Growth Reduction (%) 21 Days After Application ECHCG
# [7] = ECHCO (junglerice, Echinochloa colonum), read-out: Visual Growth Reduction (%) 21 Days After Application ECHCO
# [8] = LEFCH (Chinese sprangletop, Leptochloa chinensis), read-out: Visual Growth Reduction (%) 21 Days After Application LEFCH
# [9] = ORYSJ (Oryza sativa, rice crop), read-out: Visual Growth Reduction (%) 21 Days After Application ORYSJ
# [10] = ORYSK (Oryza sativa, rice crop), read-out: Visual Growth Reduction (%) 21 Days After Application ORYSK
# [11] = SCPJU (Japanese bulrush, Schoenoplectus juncoides Roxb.), read-out: Visual Growth Reduction (%) 21 Days After Application SCPJU
# [12] = SEBEX (hemp sesbania, Sesbania exaltata), read-out: Visual Growth Reduction (%) 21 Days After Application SEBEX
smiles,measurement,setting,value
Nc1cc(-c2cc3c(cc2F)OC(F)(F)O3)nc(C(=O)O)c1Cl [Compound 42],GR50 BRAPP,"BRAPP (Brachiaria platyphylla), probit analysis, dose for 50 percent growth reduction",0.004 g ai/ha
same,GR80 BRAPP,"BRAPP (Brachiaria platyphylla), probit analysis, dose for 80 percent growth reduction",0.2 g ai/ha
same,GR90 BRAPP,"BRAPP (Brachiaria platyphylla), probit analysis, dose for 90 percent growth reduction",1 g ai/ha
same,GR50 CYPDI,"CYPDI (Cyperus difformis), probit analysis, dose for 50 percent growth reduction",0.004 g ai/ha
same,GR80 CYPDI,"CYPDI (Cyperus difformis), probit analysis, dose for 80 percent growth reduction",0.2 g ai/ha
same,GR90 CYPDI,"CYPDI (Cyperus difformis), probit analysis, dose for 90 percent growth reduction",1 g ai/ha
same,GR50 CYPES,"CYPES (Cyperus esculentus), probit analysis, dose for 50 percent growth reduction",0.4 g ai/ha
same,GR80 CYPES,"CYPES (Cyperus esculentus), probit analysis, dose for 80 percent growth reduction",2 g ai/ha
same,GR90 CYPES,"CYPES (Cyperus esculentus), probit analysis, dose for 90 percent growth reduction",5 g ai/ha
same,GR50 CYPIR,"CYPIR (Cyperus iria), probit analysis, dose for 50 percent growth reduction",3 g ai/ha
same,GR80 CYPIR,"CYPIR (Cyperus iria), probit analysis, dose for 80 percent growth reduction",5 g ai/ha
same,GR90 CYPIR,"CYPIR (Cyperus iria), probit analysis, dose for 90 percent growth reduction",6 g ai/ha
same,GR50 DIGSA,"DIGSA (Digitaria sanguinalis), probit analysis, dose for 50 percent growth reduction",0.004 g ai/ha
same,GR80 DIGSA,"DIGSA (Digitaria sanguinalis), probit analysis, dose for 80 percent growth reduction",0.158 g ai/ha
same,GR90 DIGSA,"DIGSA (Digitaria sanguinalis), probit analysis, dose for 90 percent growth reduction",1 g ai/ha
same,GR50 ECHCG,"ECHCG (Echinochloa crus-galli), probit analysis, dose for 50 percent growth reduction",0.0001 g ai/ha
same,GR80 ECHCG,"ECHCG (Echinochloa crus-galli), probit analysis, dose for 80 percent growth reduction",0.0001 g ai/ha
same,GR90 ECHCG,"ECHCG (Echinochloa crus-galli), probit analysis, dose for 90 percent growth reduction",0.0001 g ai/ha
same,GR50 ECHCO,"ECHCO (Echinochloa colonum), probit analysis, dose for 50 percent growth reduction",0.00015 g ai/ha
same,GR80 ECHCO,"ECHCO (Echinochloa colonum), probit analysis, dose for 80 percent growth reduction",0.0207 g ai/ha
same,GR90 ECHCO,"ECHCO (Echinochloa colonum), probit analysis, dose for 90 percent growth reduction",0.268 g ai/ha
same,GR50 LEFCH,"LEFCH (Leptochloa chinensis), probit analysis, dose for 50 percent growth reduction",4 g ai/ha
same,GR80 LEFCH,"LEFCH (Leptochloa chinensis), probit analysis, dose for 80 percent growth reduction",8 g ai/ha
same,GR90 LEFCH,"LEFCH (Leptochloa chinensis), probit analysis, dose for 90 percent growth reduction",13 g ai/ha
same,GR20 ORYSJ,"ORYSJ (Oryza sativa, rice crop), probit analysis, dose for 20 percent growth reduction",1 g ai/ha
same,GR20 ORYSK,"ORYSK (Oryza sativa, rice crop), probit analysis, dose for 20 percent growth reduction",1 g ai/ha
same,GR50 SCPJU,"SCPJU (Schoenoplectus juncoides Roxb.), probit analysis, dose for 50 percent growth reduction",0.0001 g ai/ha
same,GR80 SCPJU,"SCPJU (Schoenoplectus juncoides Roxb.), probit analysis, dose for 80 percent growth reduction",0.0001 g ai/ha
same,GR90 SCPJU,"SCPJU (Schoenoplectus juncoides Roxb.), probit analysis, dose for 90 percent growth reduction",0.0001 g ai/ha
same,GR50 SEBEX,"SEBEX (Sesbania exaltata), probit analysis, dose for 50 percent growth reduction",2 g ai/ha
same,GR80 SEBEX,"SEBEX (Sesbania exaltata), probit analysis, dose for 80 percent growth reduction",5 g ai/ha
same,GR90 SEBEX,"SEBEX (Sesbania exaltata), probit analysis, dose for 90 percent growth reduction",9 g ai/ha
same,pest or weed control at 17.5 g/ha,[1],95 to 100%
same,pest or weed control at 35 g/ha,[1],95 to 100%
same,pest or weed control at 70 g/ha,[1],95 to 100%
same,pest or weed control at 17.5 g/ha,[2],95 to 100%
same,pest or weed control at 35 g/ha,[2],95 to 100%
same,pest or weed control at 70 g/ha,[2],95 to 100%
same,pest or weed control at 17.5 g/ha,[3],95 to 100%
same,pest or weed control at 35 g/ha,[3],95 to 100%
same,pest or weed control at 70 g/ha,[3],95 to 100%
same,pest or weed control at 17.5 g/ha,[4],95 to 100%
same,pest or weed control at 35 g/ha,[4],95 to 100%
same,pest or weed control at 70 g/ha,[4],95 to 100%
same,pest or weed control at 17.5 g/ha,[5],95 to 100%
same,pest or weed control at 35 g/ha,[5],95 to 100%
same,pest or weed control at 70 g/ha,[5],95 to 100%
same,pest or weed control at 17.5 g/ha,[6],95 to 100%
same,pest or weed control at 35 g/ha,[6],95 to 100%
same,pest or weed control at 70 g/ha,[6],95 to 100%
same,pest or weed control at 17.5 g/ha,[7],95 to 100%
same,pest or weed control at 35 g/ha,[7],95 to 100%
same,pest or weed control at 70 g/ha,[7],95 to 100%
same,pest or weed control at 17.5 g/ha,[8],95 to 100%
same,pest or weed control at 35 g/ha,[8],95 to 100%
same,pest or weed control at 70 g/ha,[8],95 to 100%
same,pest or weed control at 17.5 g/ha,[9],85 to 94%
same,pest or weed control at 35 g/ha,[9],95 to 100%
same,pest or weed control at 70 g/ha,[9],95 to 100%
same,pest or weed control at 17.5 g/ha,[10],60 to 74%
same,pest or weed control at 35 g/ha,[10],75 to 84%
same,pest or weed control at 70 g/ha,[10],75 to 84%
same,pest or weed control at 17.5 g/ha,[11],95 to 100%
same,pest or weed control at 35 g/ha,[11],95 to 100%
same,pest or weed control at 70 g/ha,[11],95 to 100%
same,pest or weed control at 17.5 g/ha,[12],95 to 100%
same,pest or weed control at 35 g/ha,[12],95 to 100%
same,pest or weed control at 70 g/ha,[12],95 to 100%
